Patent US20210343368A1, “Method for Engineering Synthetic Cis-Regulatory DNA” (Max-Delbrück-Centrum für Molekulare Medizin in der …, priority 2018, published 2021)

Assays:
MES-hGICs-MGT #1low = test: Medium-throughput cytokine screening, bottom reading fluorescence; assay type: cell-based, human; conditions: up to 48 hours from stimulation
Method: Phenotypic screening: Tumor cells were propagated as described above until the screening. Then we seeded 15′000/50 μl/well in 384 well plates (Corning), in Gibco FluoroBrite DMEM medium supplemented with the appropriate growth factors. Cells were dispensed as 50 μl suspension into each well using the SPARK20M Injector system (50 μl injection volume; 100 μl/s injection speed). For non-adherent cells (e.g. GICs), cells were further centrifuge at 1500 rpm for 1 h30 min at 37° C. Bottom reading fluorescence was scanned using a SPARM 20M TECAN plate reader at 37° C. in a 5% CO2-95% air (3% for GICs) in a humidified cassette, with the following settings for mVenus: Monochromator, Ex 505 nm±20 nm, Em 535 nm±7.5 nm, manual gain:198, flashes: 35, Integration time:40 μs. In independent replicas, cell viability was measured with 0.02% AlamarBlue solution in FluoroBrite medium with the following settings: Fluorescence Top reading. Monochromator, Ex 565 nm±10 nm, Em 592 nm±10 nm, manual gain: 88, flashes: 30, Integration time:40 μs. […]
Human GICs and GSCs are consistently propagated under “NBE” conditions, which stands for serum-free Neurobasal media supplemented with basic FGF and EGF^25. […] Next, GICs were stimulated with individual cytokines in biological and technical replica followed by continuous fluorescence bottom reading in a pre-defined time course experiment. […]

A549-MGT #1low cells = test: Cytokine screening, microplate reader MGT #1 fluorescence; assay type: cell-based, human; conditions: cytokine alone
Method: Phenotypic screening: Tumor cells were propagated as described above until the screening. Then we seeded 15′000/50 μl/well in 384 well plates (Corning), in Gibco FluoroBrite DMEM medium supplemented with the appropriate growth factors. Cells were dispensed as 50 μl suspension into each well using the SPARK20M Injector system (50 μl injection volume; 100 μl/s injection speed). For non-adherent cells (e.g. GICs), cells were further centrifuge at 1500 rpm for 1 h30 min at 37° C. Bottom reading fluorescence was scanned using a SPARM 20M TECAN plate reader at 37° C. in a 5% CO2-95% air (3% for GICs) in a humidified cassette, with the following settings for mVenus: Monochromator, Ex 505 nm±20 nm, Em 535 nm±7.5 nm, manual gain:198, flashes: 35, Integration time:40 μs. In independent replicas, cell viability was measured with 0.02% AlamarBlue solution in FluoroBrite medium with the following settings: Fluorescence Top reading. Monochromator, Ex 565 nm±10 nm, Em 592 nm±10 nm, manual gain: 88, flashes: 30, Integration time:40 μs.
DMSO-soluble compounds such as GSK126, were robotically aliquoted using a D300e, whereas cytokines were robotically aliquoted to each well using an Andrew pipetting robot (AndrewAlliance), using the following concentrations:
To exploit Ezh2 inhibition and MGT #1 as a framework to clarify the signaling basis of EMT in NSCLC cells, we next performed a cytokine screening in GSK126- and vehicle-treated A549-MGT #1^low cells.

Substance: TNFα
- MGT #1 / MGT #2 fluorescence normalized to naive GICs (MES-hGICs-MGT #1low): turned into MES-hGICs-MGT #1^high
- MGT #1 expression, fluorescence output (A549-MGT #1low cells): leading signaling towards MGT #1 expression
